Measured values taken from patent US8546443B2, “Benzylic oxindole pyrimidines” (Boehringer Ingelheim International GmbH, priority 2010, dated 2013).

The molecules below were run against T1, cytoplasmic kinase domain of human IGF-1R (IGF-1R-GST) (Homo sapiens, UniProt P08069) (assay: Insulin-like growth factor-1 receptor (IGF-1R) kinase assay (DELFIA)). Conditions: IGF-1R-GST kinase activity, read-out: IGF1R IC50.
T1 construct: cytoplasmic kinase domain of human IGF-1R (amino acids 964-1370); GST (glutathione-S-transferase); made in house; host or cells: High Five insect cells (Invitrogen)
Format: biochemical
Procedure: Insulin-Like Growth Factor-1 Receptor (IGF-1R)-Kinase Assay
The kinase activity is measured by DELFIA® assay (dissociation-enhanced lanthanide fluorescence immunoassay, Perkin Elmer). […] Enzyme activity is measured in the presence of substances and a control substance. Poly-glutamate-tyrosine peptide (pEY, Sigma Aldrich) and biotinylated pEY (bio-pEY) are used as reaction substrates.
After 40 min at RT the reactions are stopped with 50 μL of stop solution (250 mM EDTA, 20 mM HEPES pH 7.4). 90 μL from each reaction are transferred onto streptavidin-coated 96-well plates. After 120 min incubation at RT the plates are washed three times with 200 μL phosphate-buffered saline (PBS) per well. The plates are incubated for 60 min with 100 μL of europium-coupled antibody against phospho-tyrosine (diluted 1/2000 in Perkin Elmer DELFIA assay buffer) per well. The plates are washed three times with 200 μL per well of DELFIA washing buffer. 100 μL DELFIA Enhancement Solution (Perkin Elmer) is added to each well, and the plates are incubated for 10 min. The fluorescence signal is measured with a Wallac Victor TRF Reader. IC50 values for the inhibition of the IGF-1R-kinase activity are calculated using the programmes Fifty (Version 2) and GraphPad (Version 3.0).

T1 sequence (P08069 964-1367 limits assumed): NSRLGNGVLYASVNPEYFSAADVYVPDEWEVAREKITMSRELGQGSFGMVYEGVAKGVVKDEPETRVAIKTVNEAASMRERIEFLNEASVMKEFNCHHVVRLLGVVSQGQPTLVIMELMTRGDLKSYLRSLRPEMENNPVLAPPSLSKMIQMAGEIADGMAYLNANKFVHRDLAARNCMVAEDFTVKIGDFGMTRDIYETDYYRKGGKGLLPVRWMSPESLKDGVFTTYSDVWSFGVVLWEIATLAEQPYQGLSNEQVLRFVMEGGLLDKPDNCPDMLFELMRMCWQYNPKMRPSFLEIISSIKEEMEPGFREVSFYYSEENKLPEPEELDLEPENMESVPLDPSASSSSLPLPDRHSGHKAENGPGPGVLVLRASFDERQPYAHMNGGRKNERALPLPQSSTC

Row | IC50 [nM] | Compound
1 | 4 | COc1cc(N2CCN(CC3CC3)CC2)ccc1Nc1ncc(C(F)(F)F)c(NCc2cccc3c2CC(=O)N3)n1 [Example I-165]
2 | 11 | CCOC(=O)N1CCC(N2CCN(c3ccc(Nc4ncc(C(F)(F)F)c(NCc5cccc6c5CC(=O)N6)n4)c(OC)c3)CC2)CC1 [Example I-166]
3 | 0.2 | COCCNC1CCN(c2ccc(Nc3ncc(C(F)(F)F)c(NCc4cccc5c4C(C)(C)C(=O)N5)n3)c(OC)c2)CC1 [Example I-167]
4 | 0.2 | COCCCN(C)C1CCN(c2ccc(Nc3ncc(C(F)(F)F)c(NCc4cccc5c4C(C)(C)C(=O)N5)n3)c(OC)c2)CC1 [Example I-168]
5 | 0.26 | COc1cc(N2CCC(N(C)CCO)CC2)ccc1Nc1ncc(C(F)(F)F)c(NCc2cccc3c2C(C)(C)C(=O)N3)n1 [Example I-169]
6 | 0.33 | COc1cc(N2CCC(N3CCC(OC)CC3)CC2)ccc1Nc1ncc(C(F)(F)F)c(NCc2cccc3c2C(C)(C)C(=O)N3)n1 [Example I-170]
7 | 0.38 | COc1cc(N2CCC(N3CCOCC3)CC2)ccc1Nc1ncc(C(F)(F)F)c(NCc2cccc3c2C(C)(C)C(=O)N3)n1 [Example I-171]
8 | 0.4 | COc1cc(N2CCC(N3CC[C@H](O)C3)CC2)ccc1Nc1ncc(C(F)(F)F)c(NCc2cccc3c2C(C)(C)C(=O)N3)n1 [Example I-172]
9 | 0.46 | COc1cc(N2CCC(NCC(C)(C)OC)CC2)ccc1Nc1ncc(C(F)(F)F)c(NCc2cccc3c2C(C)(C)C(=O)N3)n1 [Example I-173]
10 | 0.81 | COc1cc(N2CCC(N3CC[C@@H](O)C3)CC2)ccc1Nc1ncc(C(F)(F)F)c(NCc2cccc3c2C(C)(C)C(=O)N3)n1 [Example I-174]
11 | 0.87 | COCCN(C)C1CCN(c2ccc(Nc3ncc(C(F)(F)F)c(NCc4cccc5c4C(C)(C)C(=O)N5)n3)c(OC)c2)CC1 [Example I-175]
12 | 0.98 | COc1cc(N2CCC(N3CCC3)CC2)ccc1Nc1ncc(C(F)(F)F)c(NCc2cccc3c2C(C)(C)C(=O)N3)n1 [Example I-176]
13 | 1 | COc1cc(N2CCC(N3CCC(O)CC3)CC2)ccc1Nc1ncc(C(F)(F)F)c(NCc2cccc3c2C(C)(C)C(=O)N3)n1 [Example I-177]
14 | 2 | COc1cc(N2CCC(N(C)CCN(C)C)CC2)ccc1Nc1ncc(C(F)(F)F)c(NCc2cccc3c2CC(=O)N3)n1 [Example I-178]
15 | 2 | COCCNC1CCN(c2ccc(Nc3ncc(C(F)(F)F)c(NCc4cccc5c4CC(=O)N5)n3)c(OC)c2)CC1 [Example I-179]
16 | 2 | COc1cc(N2CCC(N3CCCC3)CC2)ccc1Nc1ncc(C(F)(F)F)c(NCc2cccc3c2C(C)(C)C(=O)N3)n1 [Example I-180]
17 | 2 | COc1cc(N2CCC(N(C)C)CC2)ccc1Nc1ncc(C(F)(F)F)c(NCc2cccc3c2C(C)(C)C(=O)N3)n1 [Example I-181]
18 | 3 | COc1cc(N2CCC(N3CCC(N(C)C)CC3)CC2)ccc1Nc1ncc(C(F)(F)F)c(NCc2cccc3c2CC(=O)N3)n1 [Example I-182]
19 | 3 | COc1cc(N2CCC(NCCCN(C)C)CC2)ccc1Nc1ncc(C(F)(F)F)c(NCc2cccc3c2CC(=O)N3)n1 [Example I-183]
20 | 4 | COc1cc(N2CCC(N(C)C)CC2)ccc1Nc1ncc(C(F)(F)F)c(NCc2cccc3c2CC(=O)N3)n1 [Example I-184]

Row | IC50 [nM] | Compound
21 | 4 | COc1cc(N2CCC(N(C)CCCN(C)C)CC2)ccc1Nc1ncc(C(F)(F)F)c(NCc2cccc3c2CC(=O)N3)n1 [Example I-185]
22 | 4 | COc1cc(N2CCC(N(C)CCO)CC2)ccc1Nc1ncc(C(F)(F)F)c(NCc2cccc3c2CC(=O)N3)n1 [Example I-186]
23 | 4 | CNC1CCN(c2ccc(Nc3ncc(C(F)(F)F)c(NCc4cccc5c4CC(=O)N5)n3)c(OC)c2)CC1 [Example I-187]
24 | 5 | COc1cc(N2CCC(N3CCC(O)CC3)CC2)ccc1Nc1ncc(C(F)(F)F)c(NCc2cccc3c2CC(=O)N3)n1 [Example I-188]
25 | 5 | COc1cc(N2CCC(N3CCCC3)CC2)ccc1Nc1ncc(C(F)(F)F)c(NCc2cccc3c2CC(=O)N3)n1 [Example I-189]
26 | 6 | COc1cc(N2CCC(N3CCN(C4CC4)CC3)CC2)ccc1Nc1ncc(C(F)(F)F)c(NCc2cccc3c2CC(=O)N3)n1 [Example I-190]
27 | 6 | COc1cc(N2CCC(NCCO)CC2)ccc1Nc1ncc(C(F)(F)F)c(NCc2cccc3c2CC(=O)N3)n1 [Example I-191]
28 | 6 | COc1cc(N2CCC(N3CCC(OC)CC3)CC2)ccc1Nc1ncc(C(F)(F)F)c(NCc2cccc3c2CC(=O)N3)n1 [Example I-192]
29 | 7 | COc1cc(N2CCC(N3CCN(C4CCN(C)CC4)CC3)CC2)ccc1Nc1ncc(C(F)(F)F)c(NCc2cccc3c2CC(=O)N3)n1 [Example I-193]
30 | 7 | COc1cc(N2CCC(NCCN(C)C)CC2)ccc1Nc1ncc(C(F)(F)F)c(NCc2cccc3c2CC(=O)N3)n1 [Example I-194]
31 | 7 | COc1cc(N2CCC(N3CCC(C#N)CC3)CC2)ccc1Nc1ncc(C(F)(F)F)c(NCc2cccc3c2CC(=O)N3)n1 [Example I-195]
32 | 8 | COc1cc(N2CCC(N3CCOCC3)CC2)ccc1Nc1ncc(C(F)(F)F)c(NCc2cccc3c2CC(=O)N3)n1 [Example I-196]
33 | 9 | COCCN(C)C1CCN(c2ccc(Nc3ncc(C(F)(F)F)c(NCc4cccc5c4CC(=O)N5)n3)c(OC)c2)CC1 [Example I-197]
34 | 11 | COc1cc(N2CCC(N3CCN(C(C)C)CC3)CC2)ccc1Nc1ncc(C(F)(F)F)c(NCc2cccc3c2CC(=O)N3)n1 [Example I-198]
35 | 11 | COc1cc(N2CCC(N3CCC(F)(F)CC3)CC2)ccc1Nc1ncc(C(F)(F)F)c(NCc2cccc3c2CC(=O)N3)n1 [Example I-199]
36 | 13 | COc1cc(N2CCC(N3CCN(C4CCOCC4)CC3)CC2)ccc1Nc1ncc(C(F)(F)F)c(NCc2cccc3c2CC(=O)N3)n1 [Example I-200]
37 | 20 | COc1cc(N2CCC(N3CCN(C(C)=O)CC3)CC2)ccc1Nc1ncc(C(F)(F)F)c(NCc2cccc3c2CC(=O)N3)n1 [Example I-201]
38 | 24 | COc1cc(N2CCC(N3CCN(C)CC3)CC2)ccc1Nc1ncc(C(F)(F)F)c(NCc2cccc3c2CC(=O)N3)n1 [Example I-202]
39 | 2 | CC1(C)C(=O)Nc2cccc(CNc3nc(Nc4ccc(C5CCN(CCO)CC5)cc4)ncc3Cl)c21 [Example I-205]
40 | 5 | CNC(=O)CN1CCC(c2ccc(Nc3ncc(Cl)c(NCc4cccc5c4C(C)(C)C(=O)N5)n3)cc2)CC1 [Example I-206]

Row | IC50 [nM] | Compound
41 | 10 | CC1(C)C(=O)Nc2cccc(CNc3nc(Nc4ccc(C5CCN(CCS(C)(=O)=O)CC5)cc4)ncc3Cl)c21 [Example I-207]
42 | 2 | CNC(=O)CN1CCC(c2ccc(Nc3ncc(Cl)c(NCc4cccc5c4C(C)(C)C(=O)N5)n3)c(C)c2)CC1 [Example I-219]
43 | 32 | COc1cc(N2CCN(CCF)CC2)ccc1Nc1ncc(C(F)(F)F)c(NCc2cccc3c2CC(=O)N3)n1 [Example I-222]
44 | 18 | COc1cc(N2CCN(CCO)CC2)ccc1Nc1ncc(C(F)(F)F)c(NCc2cccc3c2CC(=O)N3)n1 [Example I-223]
45 | 18 | COCCN1CCN(c2ccc(Nc3ncc(C(F)(F)F)c(NCc4cccc5c4CC(=O)N5)n3)c(OC)c2)CC1 [Example I-224]
46 | 2 | CCN1CCC(NC(=O)c2ccc(Nc3ncc(C(F)(F)F)c(NCc4cccc5c4C(C)(C)C(=O)N5)n3)c(OC)c2)CC1 [Example I-225]
47 | 2 | COc1cc(N2CCC(C(=O)NC3CCN(C)CC3)CC2)ccc1Nc1ncc(C(F)(F)F)c(NCc2cccc3c2C(C)(C)C(=O)N3)n1 [Example I-226]
48 | 5 | CNC(=O)C1CCN(c2ccc(Nc3ncc(C(F)(F)F)c(NCc4cccc5c4C(C)(C)C(=O)N5)n3)c(OC)c2)CC1 [Example I-227]
49 | 8 | COc1cc(C(=O)NC2CCN(C)CC2)ccc1Nc1ncc(C(F)(F)F)c(NCc2cccc3c2C(C)(C)C(=O)N3)n1 [Example I-228]
50 | 12 | CCN1CCC(NC(=O)c2ccc(Nc3ncc(C(F)(F)F)c(NCc4cccc5c4CC(=O)N5)n3)c(OC)c2)CC1 [Example I-229]
51 | 13 | COc1cc(N2CCC(C(=O)N(C)C)CC2)ccc1Nc1ncc(C(F)(F)F)c(NCc2cccc3c2C(C)(C)C(=O)N3)n1 [Example I-230]
52 | 15 | COc1cc(C(=O)NC2CCN(C)CC2)ccc1Nc1ncc(C(F)(F)F)c(NCc2cccc3c2C(C)(C)C(=O)N3C)n1 [Example I-231]
53 | 47 | COc1cc(C(=O)NCCN2CCCC2)ccc1Nc1ncc(C(F)(F)F)c(NCc2cccc3c2CC(=O)N3)n1 [Example I-232]
54 | 58 | CCC1(CC)C(=O)Nc2cccc(CNc3nc(Nc4ccc(C(=O)NC5CCN(C)CC5)cc4OC)ncc3C(F)(F)F)c21 [Example I-233]
55 | 8 | COc1cc(C(=O)N2CCOCC2)ccc1Nc1ncc(C(F)(F)F)c(NCc2cccc3c2C(C)(C)C(=O)N3)n1 [Example I-234]
56 | 21 | COc1cc(N2CCC(O)CC2)ccc1Nc1ncc(C(F)(F)F)c(NCc2cccc3c2CC(=O)N3)n1 [Example I-237]
57 | 2.2 | COc1cc(N2CCNCC2)ccc1Nc1ncc(Cl)c(NCc2cccc3c2C(C)(C)C(=O)N3)n1 [Example I-254]
58 | 1.9 | CC(C)(O)CN1CCC(c2ccc(Nc3ncc(C(F)(F)F)c(NCc4cccc5c4C(C)(C)C(=O)N5)n3)c3c2OCO3)CC1 [Example I-315]
